Legend:
Format in all cases: cell-based
HeLa cells [1] = experiment: Surface azide labeling of HeLa cells with AzNAM, DBCO-FAM fluorescence read in plate reader; conditions: AzNAM 10-125 μM for 20 hours, then 10 μM DBCO-FAM for 1 hour
Experimental: Initially, cells were cultured in a suitable culture vessel such that their level of confluency at the time of addition of the azide-modified sugar, AzNAM, was not more than 80%.
In particular, HeLa cells were plated in 6-well plates (2.5×10^4 cells/well) and incubated for 48 hours in DMEM-10% FBS medium in a standard 5% CO2 atmosphere. Medium from each well was removed, and each well was washed with 2 ml of phosphate buffered saline (PBS), and fresh DMEM-FBS (1 ml) added. Subsequently, varying amounts of AzNAM (solubilized in DMSO) were added to the wells in small (10 μl) volumes to produce the desired final concentrations in the range 10-125 μM. After an additional 20 hours incubation, the medium in each well was removed, and the wells were washed with 2 ml of PBS, followed by addition of 1 ml of PBS. Then, a fluorescent azide reactive molecule, DBCO-FAM (Broadpharm), was directly added to each well to produce a final concentration of 10 μM.
Plates with added DBCO-FAM were protected from bright light and incubated for 1 hour at room temperature. Supernatants in each well were removed, and each well was washed twice with 2 ml of PBS. […] After pelleting and washing in PBS, cells were resuspended in 150 μl of PBS and counted. Defined numbers in 50 μl volumes in a 96-well Blackwell plate (Corning) were assayed for fluorescence in a fluorescent plate reader (Tecan).

HeLa cells [2] = experiment: Surface azide labeling of HeLa cells with AzNAM, DBCO-FAM fluorescence by flow cytometry; conditions: AzNAM 125 μM for 20 hours, versus cells receiving no azide-modified sugar
Experimental: In separate cultures, HeLa cells were added to wells of a 12-well plate at 10,000 cells/well, and cultured for 72 hours under normal conditions. The wells were washed with 1 ml of PBS, and 0.5 ml of DMEM-10% FBS was added. AzNAM was added to a final concentration of 125 μM, with cells receiving no azide-modified sugar as controls. After 20 hours, cells were harvested with CellStripper (250 μl/well), washed with PBS, and subjected to flow analysis.

HeLa cells [3] = experiment: Placement of trastuzumab mimotope on azide-modified cells, flow analysis; conditions: AzNAM 100 μM for 24 hours
Experimental: (§1) Jurkat and HeLa cells were cultured for three days in their optimal media (RPMI-10% FBS/DMEM-10% FBS, respectively) in 6-well plates to reach a state of sub-confluency. AzNAM (from 100 mM DMSO stock) was added to designated wells to a […] of 100 μM. Control wells received equal volumes of DMSO only. After 24 hours, cells were harvested (directly for the non-adherent Jurkat cells, and with Cell Stripper reagent for HeLa cells), and washed in PBS. […] Cells treated with the DBCO-Jmim peptide were then subjected to standard staining with Trastuzumab (BioVision), followed by secondary staining with FITC-conjugated goat-anti-human kappa chain antibody. During the staining procedure, the control washed DBCO-FAM treated cells were kept on ice. Finally, all cells were subjected to flow cytometric analysis.

Jurkat cells = experiment: as above; conditions: AzNAM 100 μM for 24 hours
Experimental: as §1

[4] = then 10 μM DBCO-Jmim for 1 hour, trastuzumab plus FITC goat-anti-human kappa, versus DMSO controls

azido-N-acetylmannosamine [AzNAM]
cell-associated fluorescence (96-well plate format) (HeLa cells [1]): cell-associated fluorescence increased as a function of the levels of AzNAM
flow analysis peak shift (DBCO-FAM fluorescence) (HeLa cells [2]): marked and well-demarcated peak shifts
fluorescence after metabolic labeling and DBCO-FAM treatment (flow analysis) (HeLa cells [3]; then 10 μM DBCO-FAM for 1 hour): positive fluorescence
staining with trastuzumab (flow analysis) (HeLa cells [3]; [4]): strong staining with trastuzumab
fluorescence after metabolic labeling and DBCO-FAM treatment (flow analysis) (Jurkat cells; then 10 μM DBCO-FAM for 1 hour): positive fluorescence
staining with trastuzumab (flow analysis) (Jurkat cells; [4]): strong staining with trastuzumab

From patent US20240016933A1, “Methods of Anchoring or Reconstituting Active Molecules on Metabolically Labeled Cells” (The General Hospital Corporation, priority 2020, published 2024)
